We go through two molecules from patent publication US20090286740A1, “PEPTIDES AND DERIVATIVES THEREOF, THE MANUFACTURING THEREOF AS WELL AS THEIR USE FOR PREPARING A THERAPEUTICALLY AND/OR PREVENTIVELY ACTIVE PHARMACEUTICAL COMPOSITION” (FIBREX MEDICAL RESEARCH & DEVELOPMENT GMBH, priority 2008, published 2009).

For one experiment, the system named is RhoA. Description: thrombin induced RhoA activation in HUVEC culture (active RhoA pull-down, blot). The format is cell-based, human. Particulars: 5 U/ml thrombin alone, 5 min. As for the experimental part:
The biological effect of the compounds was established in a model thrombin induced RhoA activation in human umbilical vein endothelial cell (HUVEC) culture.
HUVEC are grown to confluence under standard conditions. Before induction of Rho activity HUVEC were starved for 4 h by using IMDM (Gibco) without growth factor and serum supplements. After the starvation period 5 U/ml Thrombin (Calbiochem) or 5 U thrombin plus 50 μg/ml of test compound are added to the starvation medium for 1, 5 and 10 min. Active RhoA was isolated using Rho Assay Reagent from Upstate according to manufactures instructions. Isolates were separated on a 15% polyacrylamid gel and blotted on Nitrocellulose-Membrane (Bio-Rad). RhoA was dedected by using Anti-Rho (-A, -B, -C), clone55 from Upstate (1:500).

For experiment [1], the target named is T1, vascular endothelial (VE) cadherin (human, UniProt P33151 48-784).
T1 sequence (looked up): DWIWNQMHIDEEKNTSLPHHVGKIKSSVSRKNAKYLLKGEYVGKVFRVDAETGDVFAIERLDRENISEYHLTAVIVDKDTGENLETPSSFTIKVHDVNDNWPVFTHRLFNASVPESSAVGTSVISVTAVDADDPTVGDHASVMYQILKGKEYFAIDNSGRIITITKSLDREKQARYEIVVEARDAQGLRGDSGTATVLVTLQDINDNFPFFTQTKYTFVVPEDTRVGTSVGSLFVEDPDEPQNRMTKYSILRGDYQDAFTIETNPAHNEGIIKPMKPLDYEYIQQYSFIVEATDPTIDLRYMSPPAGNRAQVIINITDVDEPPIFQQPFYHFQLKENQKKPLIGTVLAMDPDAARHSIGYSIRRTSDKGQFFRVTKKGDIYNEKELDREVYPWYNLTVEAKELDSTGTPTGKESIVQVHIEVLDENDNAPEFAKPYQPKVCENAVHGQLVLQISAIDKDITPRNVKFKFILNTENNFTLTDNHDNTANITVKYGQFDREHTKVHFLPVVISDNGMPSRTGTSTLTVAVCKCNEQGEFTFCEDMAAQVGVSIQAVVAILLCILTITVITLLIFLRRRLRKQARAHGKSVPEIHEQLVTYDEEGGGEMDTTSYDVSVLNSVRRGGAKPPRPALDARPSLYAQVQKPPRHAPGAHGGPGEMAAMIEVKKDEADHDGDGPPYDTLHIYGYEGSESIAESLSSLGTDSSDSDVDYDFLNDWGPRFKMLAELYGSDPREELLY
As to the kind of experiment: cell-based or functional assay.

Where no end group is shown, it is not given here.

In the case of thrombin, the “Relative RhoA stimulation compared to unstimulated control” value with RhoA is reported as 2.6.
For GHRPLAPSLRPAPPPISGGGYR-OH [Gly-His-Arg-Pro-Leu-Ala-Pro-Ser-Leu-Arg-Pro-Ala-Pro-Pro-Pro-Ile-Ser-Gly-Gly-Gly-Tyr-Arg-OH], the “Relative RhoA stimulation compared to unstimulated control (thrombin-induced RhoA activation in HUVEC, Rho pull-down and blot; thrombin alone 5 min = 2.6)” value in experiment [1] was 1.2 fold relative to unstimulated control.
